Results as given in ChEMBL document CHEMBL4261644, “Novel Symmetrical Benzazolyl Derivatives Endowed with Potent Anti-Heparanase Activity” (J Med Chem, 2018).
Calls of active or inactive are those of the source. The calls are words filed in the database; no cut-off is given here.

What follows are molecules tested against T1, Heparanase (Homo sapiens, UniProt Q9Y251) (assay: Inhibition of recombinant HPSE (unknown origin) using fondaparinux as substrate incubated for 3 hrs in absence of light by WST1 assay). Conditions: not given.
T1 sequence (Q9Y251 whole entry): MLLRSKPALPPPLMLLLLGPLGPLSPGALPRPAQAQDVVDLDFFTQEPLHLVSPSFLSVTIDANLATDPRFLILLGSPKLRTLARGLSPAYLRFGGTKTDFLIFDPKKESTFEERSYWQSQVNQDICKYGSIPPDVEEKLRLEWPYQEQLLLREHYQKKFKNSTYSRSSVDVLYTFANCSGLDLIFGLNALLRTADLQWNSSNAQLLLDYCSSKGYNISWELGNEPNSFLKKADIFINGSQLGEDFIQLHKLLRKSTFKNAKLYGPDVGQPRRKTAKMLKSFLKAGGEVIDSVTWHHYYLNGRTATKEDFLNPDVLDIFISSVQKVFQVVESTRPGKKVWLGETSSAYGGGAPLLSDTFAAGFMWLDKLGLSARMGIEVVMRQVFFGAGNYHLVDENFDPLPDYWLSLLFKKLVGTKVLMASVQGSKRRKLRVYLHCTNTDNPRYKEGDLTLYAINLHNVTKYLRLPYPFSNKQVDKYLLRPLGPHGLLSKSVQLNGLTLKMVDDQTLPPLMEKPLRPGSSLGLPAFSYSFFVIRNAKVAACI

Row | IC50 [µM] | Structure (SMILES)
1 | 0.08 | O=C(O)CNC(=O)Cc1ccc2oc(-c3ccc(NC(=S)Nc4ccc(-c5nc6cc(CC(=O)NCC(=O)O)ccc6o5)cc4F)c(F)c3)nc2c1
2 | > 10 | O=C(Nc1ccc(C(=O)Nc2cccc(B(O)O)c2)cc1)Nc1ccc(C(=O)Nc2cccc(B(O)O)c2)cc1
3 | 0.45 | O=C(O)CNC(=O)Cc1ccc2oc(-c3ccc(NC(=O)Nc4ccc(-c5nc6cc(CC(=O)NCC(=O)O)ccc6o5)cc4F)c(F)c3)nc2c1

Each molecule was assayed on HT-1080 (assay: Antiproliferative activity against human HT1080 cells after 72 hrs by SRB assay). Conditions: Homo sapiens, HT-1080, 72 h; read-out: IC50.
Type: cell-based

Row | IC50 [µM] | Structure (SMILES)
4 | 8.7 | COc1ccc(C(=O)Nc2ccc(CNc3ccc(-c4nc5cc(CC(=O)O)ccc5[nH]4)cc3F)cc2)cc1Br

Same assay, conditions: ht-1080

Row | IC50 | Structure (SMILES)
5 | Not Active | O=C(O)CNC(=O)Cc1ccc2oc(-c3ccc(NC(=S)Nc4ccc(-c5nc6cc(CC(=O)NCC(=O)O)ccc6o5)cc4F)c(F)c3)nc2c1
6 | Not Active | O=C(O)CNC(=O)Cc1ccc2oc(-c3ccc(NC(=O)Nc4ccc(-c5nc6cc(CC(=O)NCC(=O)O)ccc6o5)cc4F)c(F)c3)nc2c1

These molecules were tested on U-87 MG (assay: Antiproliferative activity against human U87MG cells after 72 hrs by SRB assay). Conditions: Homo sapiens, U-87 MG, 72 h; read-out: IC50.
Type: cell-based, U-87MG ATCC

Row | IC50 [µM] | Structure (SMILES)
7 | 2.8 | COc1ccc(C(=O)Nc2ccc(CNc3ccc(-c4nc5cc(CC(=O)O)ccc5[nH]4)cc3F)cc2)cc1Br

Same assay, conditions: u-87mg atcc

Row | IC50 | Structure (SMILES)
8 | Not Active | O=C(O)CNC(=O)Cc1ccc2oc(-c3ccc(NC(=S)Nc4ccc(-c5nc6cc(CC(=O)NCC(=O)O)ccc6o5)cc4F)c(F)c3)nc2c1
9 | Not Active | O=C(O)CNC(=O)Cc1ccc2oc(-c3ccc(NC(=O)Nc4ccc(-c5nc6cc(CC(=O)NCC(=O)O)ccc6o5)cc4F)c(F)c3)nc2c1

Each molecule was assayed on U2OS (assay: Antiproliferative activity against human U2OS cells after 72 hrs by SRB assay). Conditions: Homo sapiens, U2OS, 72 h; read-out: IC50.
Type: cell-based

Row | IC50 [µM] | Structure (SMILES)
10 | 1.7 | COc1ccc(C(=O)Nc2ccc(CNc3ccc(-c4nc5cc(CC(=O)O)ccc5[nH]4)cc3F)cc2)cc1Br

Same assay, conditions: u2os

Row | IC50 | Structure (SMILES)
11 | Not Active | O=C(O)CNC(=O)Cc1ccc2oc(-c3ccc(NC(=S)Nc4ccc(-c5nc6cc(CC(=O)NCC(=O)O)ccc6o5)cc4F)c(F)c3)nc2c1
12 | Not Active | O=C(O)CNC(=O)Cc1ccc2oc(-c3ccc(NC(=O)Nc4ccc(-c5nc6cc(CC(=O)NCC(=O)O)ccc6o5)cc4F)c(F)c3)nc2c1

What follows are molecules tested on HT-1080 (assay: Anti-invasive activity in human HT1080 cells assessed as reduction in invasive potential at 10 uM after 24 hrs by matrigel invasion assay relative to control). Conditions: HT-1080, 24 h.
Type: functional

Row | Structure (SMILES) | inhibition at 10 µM [%]
13 | O=C(O)CNC(=O)Cc1ccc2oc(-c3ccc(NC(=S)Nc4ccc(-c5nc6cc(CC(=O)NCC(=O)O)ccc6o5)cc4F)c(F)c3)nc2c1 | 50 to 90
14 | O=C(O)CNC(=O)Cc1ccc2oc(-c3ccc(NC(=O)Nc4ccc(-c5nc6cc(CC(=O)NCC(=O)O)ccc6o5)cc4F)c(F)c3)nc2c1 | 50 to 90

The molecules below were run on HT-1080 (assay: Anti-invasive activity in human HT1080 cells assessed as reduction in invasive potential at 1 uM after 24 hrs by matrigel invasion assay relative to control). Conditions: HT-1080, 24 h.
Type: functional

Row | Structure (SMILES) | inhibition at 1 µM [%]
15 | COc1ccc(C(=O)Nc2ccc(CNc3ccc(-c4nc5cc(CC(=O)O)ccc5[nH]4)cc3F)cc2)cc1Br | 50 to 90

What follows are molecules tested on U-87 MG (assay: Anti-invasive activity in human U87MG cells assessed as reduction in invasive potential at 10 uM after 24 hrs by matrigel invasion assay relative to control). Conditions: not given.
Type: functional, U-87MG ATCC

Row | Structure (SMILES) | inhibition at 10 µM [%]
16 | O=C(O)CNC(=O)Cc1ccc2oc(-c3ccc(NC(=S)Nc4ccc(-c5nc6cc(CC(=O)NCC(=O)O)ccc6o5)cc4F)c(F)c3)nc2c1 | 50 to 90
17 | O=C(O)CNC(=O)Cc1ccc2oc(-c3ccc(NC(=O)Nc4ccc(-c5nc6cc(CC(=O)NCC(=O)O)ccc6o5)cc4F)c(F)c3)nc2c1 | 50 to 90

What follows are molecules tested on U-87 MG (assay: Anti-invasive activity in human U87MG cells assessed as reduction in invasive potential at 1 uM after 24 hrs by matrigel invasion assay relative to control). Conditions: not given.
Type: functional, U-87MG ATCC

Row | Structure (SMILES) | inhibition at 1 µM [%]
18 | COc1ccc(C(=O)Nc2ccc(CNc3ccc(-c4nc5cc(CC(=O)O)ccc5[nH]4)cc3F)cc2)cc1Br | 50 to 90

What follows are molecules tested on U2OS (assay: Anti-invasive activity in human U2OS cells assessed as reduction in invasive potential at 10 uM after 24 hrs by matrigel invasion assay relative to control). Conditions: not given.
Type: functional

Row | Structure (SMILES) | inhibition at 10 µM [%]
19 | O=C(O)CNC(=O)Cc1ccc2oc(-c3ccc(NC(=S)Nc4ccc(-c5nc6cc(CC(=O)NCC(=O)O)ccc6o5)cc4F)c(F)c3)nc2c1 | < 50
20 | O=C(O)CNC(=O)Cc1ccc2oc(-c3ccc(NC(=O)Nc4ccc(-c5nc6cc(CC(=O)NCC(=O)O)ccc6o5)cc4F)c(F)c3)nc2c1 | < 50

Each molecule was assayed on U2OS (assay: Anti-invasive activity in human U2OS cells assessed as reduction in invasive potential at 1 uM after 24 hrs by matrigel invasion assay relative to control). Conditions: not given.
Type: functional

Row | Structure (SMILES) | inhibition at 1 µM [%]
21 | COc1ccc(C(=O)Nc2ccc(CNc3ccc(-c4nc5cc(CC(=O)O)ccc5[nH]4)cc3F)cc2)cc1Br | 50 to 90

Each molecule was assayed against T2, Heparanase (Homo sapiens) (UniProt Q9Y251) (assay: Inhibition of HPSE in human HT1080 cells assessed as reduction in FGF1 mRNA expression after 24 hrs by qPCR analysis relative to control). Conditions: not given.
T2 sequence (whole entry): T1 sequence (Q9Y251 whole entry)
Type: cell-based

Row | inhibition | Structure (SMILES)
22 | Active | COc1ccc(C(=O)Nc2ccc(CNc3ccc(-c4nc5cc(CC(=O)O)ccc5[nH]4)cc3F)cc2)cc1Br
23 | < 40% | O=C(O)CNC(=O)Cc1ccc2oc(-c3ccc(NC(=S)Nc4ccc(-c5nc6cc(CC(=O)NCC(=O)O)ccc6o5)cc4F)c(F)c3)nc2c1
24 | < 40% | O=C(O)CNC(=O)Cc1ccc2oc(-c3ccc(NC(=O)Nc4ccc(-c5nc6cc(CC(=O)NCC(=O)O)ccc6o5)cc4F)c(F)c3)nc2c1

Each molecule was assayed against T2, Heparanase (Homo sapiens) (assay: Inhibition of HPSE in human HT1080 cells assessed as reduction in FGF2 mRNA expression after 24 hrs by qPCR analysis relative to control). Conditions: not given.
Type: cell-based

Row | inhibition | Structure (SMILES)
25 | Active | COc1ccc(C(=O)Nc2ccc(CNc3ccc(-c4nc5cc(CC(=O)O)ccc5[nH]4)cc3F)cc2)cc1Br
26 | < 40% | O=C(O)CNC(=O)Cc1ccc2oc(-c3ccc(NC(=S)Nc4ccc(-c5nc6cc(CC(=O)NCC(=O)O)ccc6o5)cc4F)c(F)c3)nc2c1
27 | < 40% | O=C(O)CNC(=O)Cc1ccc2oc(-c3ccc(NC(=O)Nc4ccc(-c5nc6cc(CC(=O)NCC(=O)O)ccc6o5)cc4F)c(F)c3)nc2c1

The molecules below were run against T2, Heparanase (Homo sapiens) (assay: Inhibition of HPSE in human HT1080 cells assessed as reduction in VEGF mRNA expression after 24 hrs by qPCR analysis relative to control). Conditions: not given.
Type: cell-based

Row | inhibition | Structure (SMILES)
28 | Active | COc1ccc(C(=O)Nc2ccc(CNc3ccc(-c4nc5cc(CC(=O)O)ccc5[nH]4)cc3F)cc2)cc1Br

Same assay, conditions: concentration not given here

Row | inhibition [%] | Structure (SMILES)
29 | < 40 | O=C(O)CNC(=O)Cc1ccc2oc(-c3ccc(NC(=S)Nc4ccc(-c5nc6cc(CC(=O)NCC(=O)O)ccc6o5)cc4F)c(F)c3)nc2c1
30 | < 40 | O=C(O)CNC(=O)Cc1ccc2oc(-c3ccc(NC(=O)Nc4ccc(-c5nc6cc(CC(=O)NCC(=O)O)ccc6o5)cc4F)c(F)c3)nc2c1

The molecules below were run against T2, Heparanase (Homo sapiens) (assay: Inhibition of HPSE in human HT1080 cells assessed as reduction in MMP9 mRNA expression after 24 hrs by qPCR analysis relative to control). Conditions: not given.
Type: cell-based

Row | inhibition | Structure (SMILES)
31 | Active | COc1ccc(C(=O)Nc2ccc(CNc3ccc(-c4nc5cc(CC(=O)O)ccc5[nH]4)cc3F)cc2)cc1Br
32 | < 40% | O=C(O)CNC(=O)Cc1ccc2oc(-c3ccc(NC(=S)Nc4ccc(-c5nc6cc(CC(=O)NCC(=O)O)ccc6o5)cc4F)c(F)c3)nc2c1
33 | < 40% | O=C(O)CNC(=O)Cc1ccc2oc(-c3ccc(NC(=O)Nc4ccc(-c5nc6cc(CC(=O)NCC(=O)O)ccc6o5)cc4F)c(F)c3)nc2c1

Each molecule was assayed on HT-1080 (assay: Anti-invasive activity in human HT1080 cells assessed as reduction in invasive potential at […] after 24 hrs by matrigel invasion assay relative to control). Conditions: not given.
Type: functional, cell-based

Row | Structure (SMILES) | inhibition
34 | O=C(O)CNC(=O)Cc1ccc2oc(-c3ccc(NC(=S)Nc4ccc(-c5nc6cc(CC(=O)NCC(=O)O)ccc6o5)cc4F)c(F)c3)nc2c1 | Active

Each molecule was assayed against T2, Heparanase (Homo sapiens) (assay: Inhibition of HPSE in human HT1080 cells assessed as reduction in HPSE mRNA expression after 24 hrs by qPCR analysis relative to control). Conditions: not given.
Type: cell-based

Row | inhibition | Structure (SMILES)
35 | Active | COc1ccc(C(=O)Nc2ccc(CNc3ccc(-c4nc5cc(CC(=O)O)ccc5[nH]4)cc3F)cc2)cc1Br

Same assay, conditions: concentration not given here

Row | inhibition [%] | Structure (SMILES)
36 | < 40 | O=C(O)CNC(=O)Cc1ccc2oc(-c3ccc(NC(=S)Nc4ccc(-c5nc6cc(CC(=O)NCC(=O)O)ccc6o5)cc4F)c(F)c3)nc2c1
37 | < 40 | O=C(O)CNC(=O)Cc1ccc2oc(-c3ccc(NC(=O)Nc4ccc(-c5nc6cc(CC(=O)NCC(=O)O)ccc6o5)cc4F)c(F)c3)nc2c1
